# Assay results taken from patent publication US20250170140A1, “PHARMACEUTICAL COMPOSITION FOR PREVENTING OR TREATING CANCER COMPRISING CARNITINE ACYLCARNITINE CARRIER INHIBITOR AND PEROXISOMAL BETA OXIDATION INHIBITOR” (priority 2021, published 2025).
# System: MIA PaCa-2
# Assay: SRB assay, cancer cell growth, pancreatic cancer cell line MIA PaCa-2
# Assay type: cell-based
# Conditions: MIA PaCa-2
# Method: As a comparison, omeprazole (KN510) and trimetazidine (KN713), a 3-ketoacyl CoA thiolase inhibitor, were co-treated. […] After cell inoculation, 96-well cell culture plates were incubated for 24 hours before the addition of experimental drugs. […] The cells were then incubated in a CO2 incubator for 48 hours, after which the assay was terminated by the addition of cold TCA. Cells were fixed in situ by gently adding 50 μl of cold 50% (w/v) TCA (final concentration: 10% TCA) and incubated at 4° C. for 60 min. The supernatant was discarded, and the plate was washed five times with distilled water and air dried. Sulforhodamine B (SRB) solution (100 μl) of 0.4% (w/v) in 1% acetic acid was added to each well, and the plate was left at room temperature for 10 min. After staining, unbound dye was removed by washing five times with 1% acetic acid, and the plate was air-dried. The bound dye was then solubilized with 10 mM trizma base, and the absorbance was recorded at 515 nm using an automated plate reader. […] The predicted synergistic activity of a combination of the present invention can be calculated using the Colby Equation in Equation 1 (S.R. Colby, Weeds, 1967, pp. 15, 20-22): α and β are the measured anti-cancer activity of each compound alone, and E is the predicted anti-cancer activity of a mixture of α and β as a prediction. In the present invention, the actual measure of anti-cancer activity of the combination treatment was the inhibition rate of cancer cell growth (%), and the predicted value (E) of the combination treatment was measured by substituting it into the above Colby Equation.
smiles,measurement,setting,value
"COc1ccc(CN2CCNCC2)c(OC)c1OC [KN713, trimetazidine]",GI50,"Homo sapiens, 48 hours, read-out: GI50 (Half maximal growth inhibition concentration)",1810 µM
same,Cancer cell growth rate Average (%),"Conc. 10^−2M, Table 1",−29.68%
same,Cancer cell growth rate Average (%),"Conc. 10^−3M, Table 1",95.03%
same,Cancer cell growth rate Average (%),"Conc. 10^−4M, Table 1",95.50%
same,Cancer cell growth rate Average (%),"Conc. 10^−5M, Table 1",94.52%
same,Cancer cell growth rate Average (%),"Conc. 10^−6M, Table 1",97.75%
same,Cancer cell growth rate Average (%),"Conc. 10^−7M, Table 1",97.85%
same,Cancer cell growth rate Average (%),"comparative example, Table 3, KN713 2.5 mM",88.90%
